Reference: patent publication US20230302031A1, “Modulators Of Purinergic Receptors and Related Immune Checkpoint For Treating Acute Respiratory Distress Syndrome” (priority 2020, published 2023)
Read-outs that look alike come from different tables or passages of the source.

Key:
ACE2-A549 cells = conditions: ACE2-A549, 72 hours, MTT; PPADS and OxATP at 100 μM; BzATP indicated concentrations
Vero E6 cells = conditions: Vero E6, 72 hours, MTT; PPADS and OxATP at 100 μM; BzATP indicated concentrations
SARS-CoV-2 [1] = experiment: SARS-CoV-2 replication in Vero E6 cells (RdRp and E mRNA, quantitative RT-PCR); type: cell-based; conditions: 500 μM UTP, 100 μM Diquafosol, 5 μM Denufosol; for amount of RdRp and E mRNA (viral replication): Vero E6, 16 and 24 hours of infection, 50 μM PPADS, 100 μM BzATP, FIG. 2; for replication of SARS-CoV-2 and/or associated cytopathogenic effects: Vero E6, RdRp and E mRNA, Spike-positive cells, viability, FIG. 7D, 7E, 7I-7K, 12A, 12B
SARS-CoV-2 [2] = type: cell-based; conditions: FIG. 7K; for ACE2 expression in response to SARS-CoV-2 infection: western blot
ACE2 [3] = type: cell-based; conditions: ACE2-A549, 24 hours; same concentrations; FIG. 14B
ACE2 [4] = type: cell-based, African green monkey; conditions: Vero E6, 24 hours; 500 μM UTP, 100 μM Diquafosol, 5 μM Denufosol, 50 μM PPADS, 100 μM OxATP, 100 μM BzATP; FIG. 14A
SARS-CoV-2 [5] = experiment: SARS-CoV-2 replication in ACE2-A549 cells (RdRp and E mRNA, Spike expression); type: cell-based; conditions: ACE2-A549, 48 hours; 500 μM UTP, 100 μM Diquafosol, 5 μM Denufosol; FIG. 7F-H
SARS-CoV-2 [6] = type: cell-based; conditions: Vero E6, 72 hours infection, MOI 1-2, indicated concentrations, MTT
[7] = test system: PMA-treated THP1 macrophages; experiment: IL-1β release from LPS+ATP-stimulated PMA-THP1 macrophages (western blot/ELISA); type: cell-based, human
Protocol: (§1) Human THP-1 cells were cultured in RPMI 1640 media, supplemented with 10% FBS and differentiated by treatment for 3 hours with 100 nM phorbol-12-myristate-13-acetate (PMA, Invivogen). After 2 days, macrophage THP-1 cells were stimulated first 3 hours with ultrapure LPS from E. coli (10 ng/ml, LPS) and then stimulated for 6 hours with ATP (5 mM, Sigma) or treated with 50 ng or 20 ng of IFNg during 24 or 12 hours as indicated. Then, supernatants and cells were collected for western blot analysis.
(§2) Cells or supernatant were lysed in appropriated buffer (250 mM NaCl, 0.1% NP-40, 5 mM EDTA, 10 mM Na3VO4, 10 mM NaF, 5 mM DTT, 3 mM Na4P2O7, 1 mM EGTA, 10 mM Glycerol phosphate, 10 mM Tris-Hcl (pH=7.5) and the protease and phosphatase inhibitors (Roche)). Equal amount of supernatant or 10-40 μg of protein extracts were run on 4-12% or 10% SDS-PAGE and transferred at 4° C. onto a nitrocellulose membrane (0.2 Micron). After incubation for 2 hours at room temperature with 5% nonfat milk or BSA (Bovine Serum Albumine) in Tris-buffered saline and 0.1% Tween 20 (TBS-Tween), membranes were incubated with primary antibody at 4° C. overnight. […] The primary antibodies against. […] Western blots shown are representative of at least of three independent experiments.
Plasma serum from P2y2^+/+ and P2y2^−/− mice and supernatants harvested from PMA-stimulated THP1 macrophages that were depleted or not for P2Y2 or NLRP3, and/or stimulated with 10 ng/mL LPS during 3 hours and 5 mM ATP during 6 hours or with 20 ng/mL IFNγ, in presence or in absence of 100 μM Suramin, 100 μM OxATP, 100 μM Kaempferol or 100 μM Diquafosol at indicated times were analyzed using western blot or ELISA for IL-1β (Ebioscience) and IL-10 (BD) according to the manufacturers' instructions.

[8] = test system: PMA-treated THP1 macrophages; experiment: IRF5 expression in IFNγ-stimulated PMA-THP1 macrophages (western blot); type: cell-based, human; conditions: 10 and 100 μM; 50 ng IFNγ 24 hours; FIG. 1C
Protocol: as §1, §2
Total cellular proteins were extracted and lysed in appropriated buffer containing 250 mM NaCl, 0.1% NP-40, 5 mM EDTA. 10 mM Na3VO4, 10 mM NaF, 5 mM DTT, 3 mM Na4P2O7, 1 mM EGTA, 10 mM Glycerol phosphate, 10 mM Tris-HCl (pH=7.5) and the protease and phosphatase inhibitors (Roche)). Then, 10-40 μg of protein extracts were run on 4-12% or 12% SDS-PAGE and transferred at 4° C. onto a nitrocellulose membrane (0.2 Micron). After 2 hours saturation at room temperature with 5% nonfat milk or BSA (Bovine Serum Albumin) in Tris-buffered saline and 0.1% Tween 20 (TBS-Tween), nitrocellulose membranes were incubated with primary antibody at 4° C. overnight. […] The primary antibodies against P2Y2 (#APR-010) and P2X7 (#APR-004) were obtained from Alomone laboratories. […]

Molecule | amount of RdRp and E mRNA (viral replication) (SARS-CoV-2 [1]) | ACE2 expression in response to SARS-CoV-2 infection (SARS-CoV-2 [2]) | ACE2 membrane expression (ACE2 [3]) | ACE2 membrane expression (ACE2 [4]) | replication of SARS-CoV-2 and/or associated cytopathogenic effects (SARS-CoV-2 [1]) | replication of SARS-CoV-2 and/or associated cytopathogenic effects (SARS-CoV-2 [5]) | cytopathogenicity / cytopathogenic effects of SARS-CoV-2 (SARS-CoV-2 [6]) | also measured
2′(3′)-O-(4-Benzoylbenzoyl) adenosine 5′-triphosphate [BzATP] | strongly enhanced viral replication | reduces ACE2 expression levels | did not change | did not change | – | – | – | viability of uninfected cells (ACE2-A549 cells): did not show a significant impact; viability of uninfected cells (Vero E6 cells): did not show a significant impact; intracellular expression of Spike (SARS-CoV-2 [2]; Vero E6, 24 hours, 50 μM PPADS, 100 μM OxATP, 100 μM BzATP): increase of intracellular Spike expression levels; entry of SARS-CoV2 into host cells (SARS-CoV-2 [2]; Vero E6): significantly increased the entry of SARS-CoV2 into host cells
Nc1ccn([C@H]2C[C@H](O)[C@@H](COP(=O)(O)OP(=O)(O)OP(=O)(O)OP(=O)(O)OC[C@H]3O[C@@H](n4ccc(=O)[nH]c4=O)[C@H](O)[C@@H]3O)O2)c(=O)n1 [Denufosol] | strongly reduced the amount of RdRp and E mRNA | – | did not change | did not change | strongly blocked the replication of SARS-CoV-2 and/or reduced associated cytopathogenic effects | strongly blocked the replication of SARS-CoV-2 and/or reduced associated cytopathogenic effects | exhibited inhibitory effects on cytopathogenicity | –
O=c1ccn([C@@H]2O[C@H](COP(=O)(O)OP(=O)(O)OP(=O)(O)OP(=O)(O)Oc3ccccc3)[C@@H](O)[C@H]2O)c(=O)[nH]1 [MRS2768] | – | – | – | – | – | – | – | release of IL-1β in supernatant ([7]; 50 μM, 1 hour pretreatment, 10 ng/ml LPS 3 hours + 5 mM ATP 6 hours, FIG. 1A): strongly inhibited the release of IL-1β
Cc1ccc(C(=O)Nc2ccc(S(=O)(=O)O)c3cc(S(=O)(=O)O)cc(S(=O)(=O)O)c23)cc1NC(=O)c1cccc(NC(=O)Nc2cccc(C(=O)Nc3cc(C(=O)Nc4ccc(S(=O)(=O)O)c5cc(S(=O)(=O)O)cc(S(=O)(=O)O)c45)ccc3C)c2)c1 [Suramin] | – | – | – | – | – | – | – | IL-1β release ([7]; 100 μM compound, 10 ng/mL LPS 3 hours + 5 mM ATP 6 hours, FIG. 6E, 6I): increased IL-1β release
O=c1ccn([C@@H]2O[C@H](COP(=O)(O)OP(=O)(O)OP(=O)(O)O)[C@@H](O)[C@H]2O)c(=O)[nH]1 [UTP, Uridine 5′-triphosphate] | strongly reduced the amount of RdRp and E mRNA | repressed ACE2 down regulation | did not change | did not change | strongly blocked the replication of SARS-CoV-2 and/or reduced associated cytopathogenic effects | strongly blocked the replication of SARS-CoV-2 and/or reduced associated cytopathogenic effects | exhibited inhibitory effects on cytopathogenicity | IRF5 expression [8]: decrease of IRFS expression
